Values quoted from earlier work in US6767915B2, “Substituted piperidines as melanocortin receptor agonists” (Merck & Co., Inc., priority 2000, dated 2004).

How the values were obtained:
erectile dysfunction = conditions: for duration of effect / onset of action: after an oral dose; for share of men/patients with adequate response: oral
[1] = in vivo, po
[2] = tested on: psychogenic erectile dysfunction

Cc1ccc(N(CC2=NCCN2)c2cccc(O)c2)cc1 [phentolamine]
duration of effect (erectile dysfunction): 2 h | onset of action (erectile dysfunction): 5 to 30 min | share of men/patients with adequate response (erectile dysfunction): 35-40%

Ac-Nle-c[Asp-His-DPhe-Arg-Trp-Lys]-NH2 [MT-II]
absorption into the systemic circulation [1]: not absorbed into the systemic circulation | response rate ([2]; injected intramuscularly or subcutaneously, males with psychogenic erectile dysfunction): 75% | duration of action ([2]; subcutaneous injection): approximately 2.5 hours | time to onset of erection ([2]; subcutaneous injection): 10 to 20 min

CCCc1nn(C)c2c(=O)[nH]c(-c3cc(S(=O)(=O)N4CCN(C)CC4)ccc3OCC)nc12 [sildenafil]
duration of effect (erectile dysfunction): about 4 hours | onset of action (erectile dysfunction): 30 to 60 min | share of men/patients with adequate response (erectile dysfunction): about 70%
